The results in this text go back to patent publication US10167270B2, “Substituted quinazoline compounds and uses thereof for modulating glucocerebrosidase activity” (Northwestern University, priority 2015, dated 2019).

This test addresses Glucocerebrosidase (Homo sapiens (Human), UniProt P04062). In words: Glucocerebrosidase activity assay with blue substrate (4MU-Glc). Format: biochemical. Conditions: for AC50: read-out: Activity AC50 or IC50 (activator); for Activity AC50 or IC50: direction not given; for IC50: nM indicated. The procedure:
The compounds in DMSO solution 0.5 μL/well were transferred to a black 96-well plate. The final titration was 24 nM to 50 μM, 12 concentrations, 2 times dilution. […] After 5 min of incubation at room temperature, the enzyme reaction was initiated by the addition of 33 μL/well blue substrate. Final concentrations of the blue substrate (4MU-Glc) was 1.5 mM. The blue substrate reaction was terminated by the addition of 33 μL/well stop solution (1 M NaOH and 1 M glycine mixture, pH 10) after 30 min of incubation at 37° C. The fluorescence was then measured in the Biotek Synergy H1 multi-mode plate reader with Ex=365 nm and Em=440 nm.
Additional compounds were prepared and tested according to the procedures provided in the examples above.
Additional substituted quinazoline compounds were prepared and tested according to the procedures provided in the examples above.

[1] abbreviates: marked (inh), inhibitor, read-out: IC50 or AC50 (inh).
Setting [2] is: marked inhibitor, read-out: Activity AC50 or IC50 (inhibitor).

SMILES strings stand for the structures. pIC50: −log10 of the molar value. Like-named read-outs stand apart in the source and are kept apart here.

Chain of Glucocerebrosidase (P04062 40-536): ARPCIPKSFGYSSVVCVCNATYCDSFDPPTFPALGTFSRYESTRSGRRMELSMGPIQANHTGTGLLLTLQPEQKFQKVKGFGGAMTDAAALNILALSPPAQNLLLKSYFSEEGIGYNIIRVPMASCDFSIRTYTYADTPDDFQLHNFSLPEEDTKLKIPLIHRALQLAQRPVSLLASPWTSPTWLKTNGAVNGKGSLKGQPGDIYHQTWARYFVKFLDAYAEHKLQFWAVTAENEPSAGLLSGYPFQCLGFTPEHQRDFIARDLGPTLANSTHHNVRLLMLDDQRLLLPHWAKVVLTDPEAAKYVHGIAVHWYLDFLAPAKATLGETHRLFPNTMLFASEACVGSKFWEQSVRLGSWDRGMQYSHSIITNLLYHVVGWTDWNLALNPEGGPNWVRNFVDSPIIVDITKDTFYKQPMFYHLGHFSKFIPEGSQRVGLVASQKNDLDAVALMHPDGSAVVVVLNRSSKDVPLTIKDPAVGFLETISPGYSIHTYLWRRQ

`Cc1ccc(CCNc2nc(-c3cccnc3)nc3ccccc23)cc1` [compound 73]: the negative-log IC50 (pIC50) under setting [1] is 5.75.

For `CN(c1nc(-c2cccnc2)nc2ccccc12)C1CCc2ccccc2C1` (stereo not drawn) [compound 75], under setting [1], the pIC50 was 5.80.

Consider `c1cncc(-c2nc(NC3CCCCCCC3)c3ccccc3n2)c1` [compound 76], for which, under setting [1], the pIC50 was 7.55.

Take `CC1CCC(Nc2nc(-c3cccnc3)nc3ccccc23)CC1` (stereo not drawn) [compound 77]: the pIC50 under setting [1] was 7.70.

On to `c1cncc(-c2nc(NC3CC4CCC3C4)c3ccccc3n2)c1` (stereo not drawn) [compound 78], for which the pIC50 under setting [1] was 6.45.

Consider `c1cncc(-c2nc(NC34CC5CC(CC(C5)C3)C4)c3ccccc3n2)c1` [compound 79], for which the negative logarithm of the IC50 (pIC50) under setting [1] is 5.95.

Consider `c1ccc(C2CCCN(c3nc(-c4cccnc4)nc4ccccc34)C2)cc1` (stereo not drawn) [compound 82], for which the “IC50 or AC50 (act)” value (marked (act), activator, AC50) was “Weak (act)”.

Consider `CN(c1nc(-c2cccnc2)nc2ccccc12)[C@H]1CCc2ccccc2C1` [compound 84], for which the pIC50 under setting [1] was 6.30.

As to `CC1(C)CCC(Nc2nc(-c3cccnc3)nc3ccccc23)CC1` [compound 85], the negative logarithm of the IC50 (pIC50) under setting [1] was 6.34.

With `CC1CCCC(Nc2nc(-c3cccnc3)nc3ccccc23)C1` (stereo not drawn) [compound 86], the negative-log IC50 (pIC50) under setting [1] was 7.10.

As for `CN(c1nc(-c2cccnc2)nc2ccccc12)[C@@H]1CCc2ccccc2C1` [compound 88], the “IC50 or AC50 (inh)” value (marked (inh), inhibitor) is recorded as “Weak (inh)”.

With `Ic1ccc2c(c1)CC(Nc1nc(-c3cccnc3)nc3ccccc13)C2` (stereo not drawn) [compound 89], under setting [1], the pIC50 was 6.77.

Regarding `c1ccc(OCCCNc2nc(-c3cccnc3)nc3ccccc23)cc1` [compound 91], under setting [2], the negative logarithm of the IC50 (pIC50) was 5.55.

Turning to `CC(CNc1nc(-c2cccnc2)nc2ccccc12)Oc1ccccc1` (stereo not drawn) [compound 92], under setting [2], the pIC50 was 5.30.

As to `c1cncc(-c2nc(N3CCc4[nH]c5ccccc5c4C3)c3ccccc3n2)c1` [compound 93], where the note is “marked activator, AC50”, the AC50 was determined as 6.31 µM.

As for `c1cncc(-c2nc(N3CCc4c([nH]c5ccccc45)C3)c3ccccc3n2)c1` [compound 94], the AC50 (marked activator, AC50) was determined as 2.82 µM.

As for `CCCCCCCCNc1nc(-c2cccnc2)nc2ccccc12` [compound 95], the pIC50 under setting [2] is 5.65.

In the case of `CC(C)(C)OC(=O)NCCC#Cc1ccc2c(c1)CC(Nc1nc(-c3cccnc3)nc3ccccc13)C2` (stereo not drawn) [compound 96], the pIC50 under setting [2] is 6.25.

Regarding `CC(COc1ccccc1)Nc1nc(-c2cccnc2)nc2ccccc12` (stereo not drawn) [compound 97], the pIC50 under setting [2] is 5.60.

For the compound `Oc1ccc2c(c1)C[C@@H](Nc1nc(-c3cccnc3)nc3ccccc13)CC2` [compound 98], the pIC50 under setting [2] is 7.10.

Take `NCCC#Cc1ccc2c(c1)CC(Nc1nc(-c3cccnc3)nc3ccccc13)C2` (stereo not drawn) [compound 99]: the negative logarithm of the IC50 (pIC50) under setting [2] was 6.05.

As to `Brc1ccc2c(c1)CC(Nc1nc(-c3cccnc3)nc3ccccc13)C2` (stereo not drawn) [compound 100], under setting [2], the pIC50 was 6.75.

With `CN(c1nc(-c2cccnc2)nc2ccccc12)C1Cc2ccc(C#CCCCCCCCCC(=O)ON3C(=O)CCC3=O)cc2C1` (stereo not drawn) [compound 105], the “Activity AC50 or IC50 (activator)” value (marked activator, AC50) is “Weak activator”.

With `c1cncc(-c2nc(NCCCCCCCCCCNc3nc(-c4cccnc4)nc4ccccc34)c3ccccc3n2)c1` [compound 108], the negative-log IC50 (pIC50) under setting [2] is 6.85.

In the case of `COC(=O)CCCCCCCCC#Cc1ccc(OCCN(C)c2nc(-c3cccnc3)nc3ccccc23)cc1` [compound 109], the “Activity AC50 or IC50 (activator)” value (marked activator, AC50) is recorded as “Weak activator”.

For the compound `CN(CCOc1ccc(C#CCOCCOCCNc2nc(-c3cccnc3)nc3ccccc23)cc1)c1nc(-c2cccnc2)nc2ccccc12` [compound 110], under “marked activator, AC50”, the “Activity AC50 or IC50 (activator)” value was “Weak activator”.

With `CN(CCCCCCCCCCN(C)c1nc(-c2cccnc2)nc2ccccc12)c1nc(-c2cccnc2)nc2ccccc12` [compound 112], the “Activity AC50 or IC50 (activator)” value is “Weak activator”.

`c1cncc(-c2nc(N3CCCOCC3)c3ccccc3n2)c1` [compound 116]: the “Activity AC50 or IC50 (activator)” value (marked activator, AC50) is reported as “Weak activator”.

Take `CN(CCCc1ccccc1)c1nc(-c2cccnc2)nc2ccccc12` [compound 119]: where the note is “marked activator, AC50”, the AC50 came to 5.01 µM.

On to `CN(c1nc(-c2cccnc2)nc2ccccc12)C1CCCCCCC1` [compound 123], for which the “Activity AC50 or IC50 (activator)” value (marked activator, AC50) was “Weak activator”.

As to `CN(CCOc1ccccc1)c1nc(-c2cccs2)nc2ccccc12` [compound 125], the “Activity AC50 or IC50” value is reported as “Inactive”.

Regarding `CN(CCOc1ccccc1)c1nc(-c2ccsc2)nc2ccccc12` [compound 126], the “Activity AC50 or IC50” value is “Inactive”.

For `CN(CCOc1ccccc1)c1nc(-c2ccc(F)cc2)nc2ccccc12` [compound 129], the “Activity AC50 or IC50” value is “Inactive”.

In the case of `CN(CCOc1ccccc1)c1nc(-c2ccccc2)nc2ccccc12` [compound 131], the “Activity AC50 or IC50” value is “Inactive”.

In the case of `CN(CCOc1ccccc1)c1nc(-c2cccc(F)c2)nc2ccccc12` [compound 132], the “Activity AC50 or IC50” value is “Inactive”.

On to `c1ccc(COCCNc2nc(-c3cccnc3)nc3ccccc23)cc1` [compound 140], for which the pIC50 under setting [2] is 4.95.

With `CN(CCOCc1ccccc1)c1nc(-c2cccnc2)nc2ccccc12` [compound 141], the pIC50 under setting [2] was 4.95.

Take `Nc1ccc(-c2nc(NC3Cc4ccccc4C3)c3ccccc3n2)cc1` [compound 142]: under setting [2], the pIC50 was 8.15.

For the compound `CN(CCOc1ccccc1)c1nc(-c2ccccn2)nc2ccccc12` [compound 143], where the note is “marked activator, AC50”, the “Activity AC50 or IC50 (activator)” value is recorded as “Weak activator”.

In the case of `CN(CCOc1ccccc1)c1nc(-c2ccc(N)cc2)nc2ccccc12` [compound 144], the “Activity AC50 or IC50 (inhibitor)” value (marked inhibitor) was “Weak inhibitor”.

Turning to `CC(C)(C)OC(=O)NCCCCCC(=O)Nc1ccc(-c2nc(NC3Cc4ccccc4C3)c3ccccc3n2)cc1` [compound 145], the IC50 under setting [2] worked out at 5.6 nM.

As for `CC(C)(C)OC(=O)NCCOCCOCC(=O)Nc1ccc(-c2nc(NC3Cc4ccccc4C3)c3ccccc3n2)cc1` [compound 146], the IC50 under setting [2] came to 39.8 nM.

As for `NCCCCCC(=O)Nc1ccc(-c2nc(NC3Cc4ccccc4C3)c3ccccc3n2)cc1` [compound 147], the half-maximal inhibitory concentration (IC50) under setting [2] was 7.5 nM.

For the compound `CN(CCOc1ccc(C#CCCCCCCCCC(=O)ON2C(=O)CCC2=O)cc1)c1nc(-c2cccnc2)nc2ccccc12` [compound 153], the “Activity AC50 or IC50 (activator)” value (marked activator, AC50) is on record as “activator”.

As to `O=C(CCCC[C@@H]1SC[C@@H]2NC(=O)N[C@@H]21)NCCOCCOCCOCCOCCC(=O)NCCCCCC(=O)Nc1ccc(-c2nc(NC3Cc4ccccc4C3)c3ccccc3n2)cc1` [compound 156], the IC50 under setting [2] is 1.95 nM.
